Results on two compounds are retold here after US6492366B1, “Cyano-indole serotonin-reuptake inhibitor compound” (Les Laboratoires Servier, priority 1999, dated 2002).

pKi: −log10 of the molar value.

A word on the ED50: it is the dose that gives a 50% effect, or the effect in half of the subjects. What is called pKi is the Ki on a negative log10 scale, so that one unit is a factor of ten. A lower pKi goes with a high Ki.

Assay [1] has as its system spontaneous marble-burying behaviour of mice. Nature of the assay: Marble-burying test in mice. In kind it is in vivo. As to conditions: Mus musculus, 0.5 h; male NMRI mice, 24 marbles, 30 minutes' free exploration; read-out: ED50 (Efficacy dose 50), inhibition of marble-burying. An excerpt: Marble-burying Test in Mice This test enables evaluation of the capacity of pharmacological agents to inhibit the spontaneous marble-burying behaviour of mice, the inhibition being predictive of antidepressant and/or anti-impulsive action. Male mice of the NMRI strain weighing from 20 to 25 g on the day of the experiment are placed individually in Macrolon boxes (30×18×19 cm) containing 5 cm of sawdust and covered with a perforated plexiglass plate. Twenty four “tiger's eye” glass marbles are evenly distributed on the sawdust at the periphery of the box. At the end of 30 minutes' free exploration, the animals are removed from the box and the number of buried marbles is counted.

The target in assay [2] is T1, serotonin-reuptake sites (Rattus norvegicus, UniProt P31652).
T1 construct: The membranes are prepared from rat frontal cortex; from tissue; host or cells: rat frontal cortex membranes
Nature of the assay: Determination of affinity for serotonin-reuptake sites in the rat ([3H]-paroxetine competition). The format is binding. As to conditions: rat frontal cortex membranes, 0.25 nM [3H]-paroxetine, 2 hours at 25° C. On the procedure:
Determination of Affinity for Serotonin-reuptake Sites in the Rat The affinity of the compounds of the invention was determined by competition experiments with [^3H]-paroxetine. The membranes are prepared from rat frontal cortex and are incubated in triplicate with 0.25 nM [^3H]-paroxetine and the cold ligand in a final volume of 0.4 ml, for 2 hours at 25° C. The incubation buffer contains 50 mM TRIS-HCl (pH 7.4), 120 mM NaCl and 5 mM KCl. Non-specific binding is determined using 10 μM citalopram. At the end of the incubation, the mixture is filtered through filters and washed three times with 5 ml of cooled buffer. The radioactivity retained on the filters is determined by liquid scintillation counting. The binding isotherms are analysed by non-linear regression to determine the IC50 values. The latter are converted into a dissociation constant (Ki) using the Cheng-Prusoff equation: Ki=IC50/[…] wherein L is the concentration of [^3H]-paroxetine and Kd is the dissociation constant (0.13 nM).

T1 sequence (P31652 whole entry): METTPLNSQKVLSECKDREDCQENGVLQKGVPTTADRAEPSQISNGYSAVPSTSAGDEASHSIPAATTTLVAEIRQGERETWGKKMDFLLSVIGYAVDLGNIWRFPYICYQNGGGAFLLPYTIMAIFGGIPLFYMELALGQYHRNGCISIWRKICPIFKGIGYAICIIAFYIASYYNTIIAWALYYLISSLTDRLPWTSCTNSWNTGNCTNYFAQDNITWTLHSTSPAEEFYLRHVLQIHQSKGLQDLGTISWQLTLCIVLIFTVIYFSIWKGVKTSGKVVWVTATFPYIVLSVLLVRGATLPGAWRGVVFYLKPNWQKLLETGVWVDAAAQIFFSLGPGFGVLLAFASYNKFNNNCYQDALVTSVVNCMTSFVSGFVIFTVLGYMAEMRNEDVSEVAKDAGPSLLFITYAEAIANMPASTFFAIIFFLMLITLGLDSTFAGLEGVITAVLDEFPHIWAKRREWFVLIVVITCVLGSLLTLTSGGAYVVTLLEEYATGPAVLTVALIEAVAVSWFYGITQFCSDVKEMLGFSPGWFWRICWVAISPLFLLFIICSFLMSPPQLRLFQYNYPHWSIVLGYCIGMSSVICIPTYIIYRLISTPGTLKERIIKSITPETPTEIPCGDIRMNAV

For the compound `Cl.N#Cc1ccc2[nH]cc(CC3CCN(CCc4cc5c(cc4Cl)NC(=O)C5)C3)c2c1` (stereo not drawn) [Example 6, 3-({1-[2-(6-Chloro-2-oxo-2,3-dihydro-1H-indol-5-yl)ethyl]-3-pyrrolidinyl}methyl)-1H-indole-5-carbonitrile Hydrochloride], the ED50 in assay [1] came out at 3.8 mg/kg. In assay [2], this compound showed a pKi of 9.40. Take `Cl.N#Cc1ccc2[nH]cc(CC3CCN(CCc4ccc5c(c4)CC(=O)N5)C3)c2c1` (stereo not drawn) [Example 7, 3-({1-[2-(2-Oxo-2,3-dihydro-1H-indol-5-yl)ethyl]-3-pyrrolidinyl}-methyl)-1H-indole-5-carbonitrile Hydrochloride]: in assay [1], the ED50 is 1.5 mg/kg.
